Assay results published in US20100298141A1, “SUBSTITUTED PYRIDINE N-OXIDE HERBICIDES” (E. I. DU PONT DE NEMOURS AND COMPANY, priority 2007, published 2010).

How the values were obtained:
[1] = test system: wheat; test: Test C pre-/postemergence test; format: in vivo, Triticum aestivum; conditions: Preemergence; for Wheat plant response rating: 62 g ai/ha, scale 0 to 100; for Plant response rating, Wheat: 31 g ai/ha, scale 0 to 100 (0 no effect, 100 complete control)
Procedure, shortened: (§1)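 Seeds were planted and treated preemergence with test chemical in a non-phytotoxic solvent mixture containing surfactant. Postemergence applications of the same formulation went onto plants 2 to 18 cm tall (1- to 4-leaf stage). A dash marks no test result.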

[2] = test system: morningglory; test: Test C pre-/postemergence test; format: in vivo, Ipomoea coccinea; conditions: Preemergence; for Morningglory plant response rating: 62 g ai/ha, scale 0 to 100
Procedure, shortened: as §1

[3] = test system: johnsongrass; test: Test C pre-/postemergence test; format: in vivo, Sorghum halepense; conditions: Preemergence; for Johnsongrass plant response rating: 62 g ai/ha, scale 0 to 100; for Plant response rating (0 to 100), Johnsongrass: 250 g ai/ha
Procedure, shortened: as §1

[4] = test system: giant foxtail; test: Test C pre-/postemergence test; format: in vivo, Setaria faberii; conditions: Preemergence; for Foxtail, Giant plant response rating: 62 g ai/ha, scale 0 to 100; for Plant response rating, Foxtail, Giant: 31 g ai/ha, scale 0 to 100 (0 no effect, 100 complete control); for Plant response rating (0 to 100), Foxtail, Giant: 250 g ai/ha
Procedure, shortened: as §1

[5] = test system: corn; test: Test A pre-/postemergence greenhouse test; format: in vivo, Zea mays; conditions: for Corn plant response rating: 0 to 100 scale; for Plant response rating, Corn: 0 to 100 scale where 0 is no effect and 100 is complete control
Procedure, shortened: (§2)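 Visual injury ratings, made relative to untreated controls roughly ten days after treatment, cover both preemergence and postemergence application. Compounds in a surfactant-containing non-phytotoxic solvent were sprayed onto the soil surface after sowing and, simultaneously, onto young plants at the one- to two-leaf stage.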

[6] = test system: yellow nutsedge; test: Test C pre-/postemergence test; format: in vivo, Cyperus esculentus; conditions: Preemergence; for Nutsedge, Yellow plant response rating: 62 g ai/ha, scale 0 to 100; for Plant response rating, Nutsedge, Yellow: 31 g ai/ha, scale 0 to 100 (0 no effect, 100 complete control)
Procedure, shortened: as §1

[7] = test system: Italian ryegrass; test: Test C pre-/postemergence test; format: in vivo, Lolium multiflorum; conditions: Preemergence; for Ryegrass, Italian plant response rating: 62 g ai/ha, scale 0 to 100; for Plant response rating, Ryegrass, Italian: 31 g ai/ha, scale 0 to 100 (0 no effect, 100 complete control)
Procedure, shortened: as §1

[8] = test system: cocklebur; test: Test C pre-/postemergence test; format: in vivo, Xanthium strumarium; conditions: for Plant response rating, Cocklebur: 31 g ai/ha, scale 0 to 100 (0 no effect, 100 complete control)
Procedure, shortened: as §1

[9] = test system: eastern black nightshade; test: Test C pre-/postemergence test; format: in vivo, Solanum ptycanthum; conditions: Preemergence; for Nightshade plant response rating: 62 g ai/ha, scale 0 to 100; for Plant response rating, Nightshade: 31 g ai/ha, scale 0 to 100 (0 no effect, 100 complete control)
Procedure, shortened: as §1

[10] = test system: kochia; test: Test C pre-/postemergence test; format: in vivo, Kochia scoparia; conditions: Preemergence; for Kochia plant response rating: 62 g ai/ha, scale 0 to 100
Procedure, shortened: as §1

[11] = test system: wild oat; test: Test C pre-/postemergence test; format: in vivo, Avena fatua; conditions: Preemergence; for Oat, Wild plant response rating: 62 g ai/ha, scale 0 to 100; for Plant response rating, Oat, Wild: 31 g ai/ha, scale 0 to 100 (0 no effect, 100 complete control)
Procedure, shortened: as §1

[12] = test system: redroot pigweed; test: Test A pre-/postemergence greenhouse test; format: in vivo, Amaranthus retroflexus; conditions: for Pigweed plant response rating: 0 to 100 scale; for Plant response rating, Pigweed: 0 to 100 scale where 0 is no effect and 100 is complete control
Procedure, shortened: as §2

[13] = test system: morningglory; test: Test A pre-/postemergence greenhouse test; format: in vivo, Ipomoea spp.; conditions: for Morningglory plant response rating: 0 to 100 scale; for Plant response rating, Morningglory: 0 to 100 scale where 0 is no effect and 100 is complete control
Procedure, shortened: as §2

[14] = test system: bermudagrass; test: Test C pre-/postemergence test; format: in vivo, Cynodon dactylon; conditions: for Plant response rating, Bermudagrass: 31 g ai/ha; for Plant response rating (0 to 100), Bermudagrass: 250 g ai/ha
Procedure, shortened: as §1

[15] = test system: common (oilseed) sunflower; test: Test C pre-/postemergence test; format: in vivo, Helianthus annuus; conditions: Preemergence; for Sunflower plant response rating: 62 g ai/ha, scale 0 to 100; for Plant response rating, Sunflower: 31 g ai/ha, scale 0 to 100 (0 no effect, 100 complete control)
Procedure, shortened: as §1

[16] = test system: corn; test: Test C pre-/postemergence test; format: in vivo, Zea mays; conditions: for Plant response rating, Corn: 31 g ai/ha, scale 0 to 100 (0 no effect, 100 complete control); for Plant response rating (0 to 100), Corn: 250 g ai/ha
Procedure, shortened: as §1

[17] = test system: rice; test: Test C flooded paddy test; format: in vivo, Oryza sativa; conditions: Flood
Procedure, shortened: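 Visual injury ratings against untreated controls, taken 13 to 15 days after compound was added to paddy water standing 3 cm above the soil.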

[18] = 31 g ai/ha, scale 0 to 100 (0 no effect, 100 complete control)
[19] = Postemergence, 125 g ai/ha, 0 is no effect, 100 is complete control
[20] = Postemergence, 500 g ai/ha, 0 is no effect, 100 is complete control
[21] = Preemergence, 125 g ai/ha, 0 no effect, 100 complete control
[22] = 62 g ai/ha, Preemergence, scale 0 to 100
[23] = preemergence, 125 g ai/ha, scale 0 (no effect) to 100 (complete control)
[24] = 62 g ai/ha, Preemergence, scale 0 to 100 (0 no effect, 100 complete control)
[25] = Preemergence, scale 0 to 100 (0 no effect, 100 complete control)
[26] = 62 g ai/ha, scale 0 to 100, 0 no effect, 100 complete control, 13 to 15 days
[27] = 125 g ai/ha, scale 0 to 100, 0 no effect, 100 complete control, 13 to 15 days
[28] = 250 g ai/ha, scale 0 to 100 (0 no effect, 100 complete control)

Cn1nc(C(F)(F)F)c(C[S+]([O-])c2cc(C(C)(C)C)cc[n+]2[O-])c1OC(F)F (racemic) [Compound 24]
5: Kochia plant response rating [10]
80: Morningglory plant response rating [2] | Oat, Wild plant response rating [11] | Plant response rating, Rice [17, 28]
40: Wheat plant response rating [1] | Corn plant response rating [5, 20] | Plant response rating, Corn ([5]; Preemergence, 500 g ai/ha) | Morningglory plant response rating [13, 19]
100: Plant response rating (0 to 100), Johnsongrass [3] | Plant response rating (0 to 100), Foxtail, Giant [4] | Nightshade plant response rating [9] | Plant response rating, Nightshade [9] | Pigweed plant response rating [12, 21] | Plant response rating, Pigweed ([12]; Preemergence, 500 g ai/ha) | Plant response rating (0 to 100), Bermudagrass ([14]; Preemergence) | Bermudagrass plant response rating [14, 23]
30: Plant response rating, Rice [17, 26]
85: Bermudagrass plant response rating [14, 24]
50: Plant response rating, Johnsongrass [3, 18] | Plant response rating, Oat, Wild [11] | Pigweed plant response rating [12, 20] | Corn plant response rating [16, 22]
70: Plant response rating, Morningglory [2, 18] | Plant response rating, Foxtail, Giant [4] | Nutsedge, Yellow plant response rating [6] | Morningglory plant response rating [13, 21]
20: Pigweed plant response rating [12, 19]
75: Plant response rating, Bermudagrass [14, 25]
45: Plant response rating, Rice [17, 27]
90: Johnsongrass plant response rating [3] | Foxtail, Giant plant response rating [4] | Morningglory plant response rating [13, 20] | Plant response rating, Morningglory ([13]; Preemergence, 500 g ai/ha) | Plant response rating (0 to 100), Corn ([16]; Preemergence) | Corn plant response rating [16, 23]
0: Plant response rating, Wheat [1] | Corn plant response rating [5, 19] | Corn plant response rating [5, 21] | Plant response rating, Nutsedge, Yellow [6] | Ryegrass, Italian plant response rating [7] | Plant response rating, Ryegrass, Italian [7] | Cocklebur plant response rating [8, 22] | Plant response rating, Cocklebur ([8]; Preemergence) | Cocklebur plant response rating [8, 23] | Plant response rating, Kochia [10, 18] | Sunflower plant response rating [15] | Plant response rating, Sunflower [15] | Plant response rating, Corn ([16]; Preemergence) | Plant response rating, Rice [17, 18]

CC(c1c(C(F)(F)F)nn(C)c1OC(F)F)S(=O)(=O)c1cc(C(C)(C)C)cc[n+]1[O-] (racemic) [Compound 26]
75: Plant response rating (0 to 100), Foxtail, Giant [4]
30: Morningglory plant response rating [13, 20] | Morningglory plant response rating [13, 21]
85: Johnsongrass plant response rating [3]
60: Oat, Wild plant response rating [11] | Pigweed plant response rating [12, 20]
70: Foxtail, Giant plant response rating [4] | Corn plant response rating [16, 23]
40: Plant response rating, Foxtail, Giant [4] | Pigweed plant response rating [12, 19]
80: Morningglory plant response rating [2] | Plant response rating, Bermudagrass [14, 25] | Plant response rating, Rice [17, 28]
65: Ryegrass, Italian plant response rating [7]
90: Pigweed plant response rating [12, 21]
20: Corn plant response rating [5, 21] | Morningglory plant response rating [13, 19]
95: Plant response rating (0 to 100), Corn ([16]; Preemergence)
0: Wheat plant response rating [1] | Plant response rating, Wheat [1] | Corn plant response rating [5, 19] | Corn plant response rating [5, 20] | Plant response rating, Nutsedge, Yellow [6] | Plant response rating, Ryegrass, Italian [7] | Cocklebur plant response rating [8, 22] | Plant response rating, Cocklebur ([8]; Preemergence) | Cocklebur plant response rating [8, 23] | Kochia plant response rating [10] | Plant response rating, Oat, Wild [11] | Sunflower plant response rating [15] | Plant response rating, Sunflower [15] | Corn plant response rating [16, 22] | Plant response rating, Corn ([16]; Preemergence) | Plant response rating, Rice [17, 18] | Plant response rating, Rice [17, 26] | Plant response rating, Rice [17, 27]
50: Plant response rating, Corn ([5]; Preemergence, 500 g ai/ha) | Nutsedge, Yellow plant response rating [6] | Plant response rating (0 to 100), Cocklebur ([8]; Preemergence, 250 g ai/ha)
100: Plant response rating (0 to 100), Johnsongrass [3] | Nightshade plant response rating [9] | Plant response rating, Nightshade [9] | Plant response rating, Pigweed ([12]; Preemergence, 500 g ai/ha) | Plant response rating, Morningglory ([13]; Preemergence, 500 g ai/ha) | Bermudagrass plant response rating [14, 24] | Plant response rating (0 to 100), Bermudagrass ([14]; Preemergence) | Bermudagrass plant response rating [14, 23]
